Reference: patent US11214536B2, “Polymorphs and uses thereof” (Inspirna, Inc., priority 2017, dated 2022)

Assay: Dynamic Vapor Sorption (DVS), hygroscopicity, with XRPD of the post-DVS solid
Assay type: physicochemical
Conditions: for mass uptake at 90% RH by DVS analysis: 25° C., DVS sorption/desorption cycles; for hygroscopic nature by DVS analysis: assessed from mass uptake at 90% RH; for solid form of the post-DVS sample (XRPD): XRPD analysis on solid retained after DVS
Procedure: Approximately, 10-20 mg of sample was placed into a mesh vapor sorption balance pan and loaded into a DVS Advantage dynamic vapor sorption balance by Surface Measurement Systems. The sample was subjected to a ramping profile from 40-90% relative humidity (RH) at 10% increments, maintaining the sample at each step until a stable weight had been achieved (dm/dt 0.004%, minimum step length 30 minutes, maximum step length 500 minutes) at 25° C. After completion of the sorption cycle, the sample was dried using the same procedure to 0% RH and then a second sorption cycle back to 40% RH. Two cycles were performed. The weight change during the sorption/desorption cycles were plotted, allowing for the hygroscopic nature of the sample to be determined. XRPD analysis was then carried out on any solid retained.

CC(CCOc1cccc(CC(=O)O)c1)N(Cc1cccc(C(F)(F)F)c1Cl)CC(c1ccccc1)c1ccccc1 (stereo not shown) [Form 4]
mass uptake at 90% RH by DVS analysis: about 1.16% | hygroscopic nature by DVS analysis: slightly hygroscopic | solid form of the post-DVS sample (XRPD): no change in the solid form

CC(CCOc1cccc(CC(=O)O)c1)N(Cc1cccc(C(F)(F)F)c1Cl)CC(c1ccccc1)c1ccccc1 (stereo not shown) [Form 5]
mass uptake at 90% RH by DVS analysis: about 2.7% | hygroscopic nature by DVS analysis: slightly hygroscopic | solid form of the post-DVS sample (XRPD): partially amorphous Form 5 material

CC(CCOc1cccc(CC(=O)O)c1)N(Cc1cccc(C(F)(F)F)c1Cl)CC(c1ccccc1)c1ccccc1 (stereo not shown) [Form 6]
mass uptake at 90% RH by DVS analysis: about 2.3% | hygroscopic nature by DVS analysis: slightly hygroscopic | solid form of the post-DVS sample (XRPD): no significant change in the solid form

CC(CCOc1cccc(CC(=O)O)c1)N(Cc1cccc(C(F)(F)F)c1Cl)CC(c1ccccc1)c1ccccc1 (stereo not shown) [amorphous material]
mass uptake at 90% RH by DVS analysis: about 6.17% | mass uptake at 90% RH by DVS analysis (listed as amorphous compound): about 6.17% | hygroscopic nature by DVS analysis: highly hygroscopic | solid form of the post-DVS sample (XRPD): remained amorphous
